Consider 12 molecules from US10632125B2, “MTH1 inhibitors for treatment of inflammatory and autoimmune conditions” (THOMAS HELLEDAYS STIFTELSE FÖR MEDICINSK FORSKNING, priority 2014, dated 2020).

The target of the first assay is MTH1 (Homo sapiens, UniProt P36639). As to the kind of experiment: MTH1 enzymatic assay (malachite green, coupled to pyrophosphatase). Format: biochemical. To be noted: dGTP 100 μM, MTH1 6 nM; 96- or 384-well format; read-out: IC50.
Consider `Cc1c(Cl)cccc1-c1cc(NCCc2ccc(S(N)(=O)=O)cc2)nc(N)n1` [Example 297, 4-(2-{[2-amino-6-(3-chloro-2-methylphenyl)pyrimidin-4-yl]amino}ethyl)benzene-1-sulfonamide], for which the IC50 is below 200 nM.
Same read-out and setting: then `Cc1c(Cl)cccc1-c1cc(NCCc2ccc(O)c(O)c2)nc(N)n1` [Example 727, 4-[2-[[2-amino-6-(3-chloro-2-methyl-phenyl)pyrimidin-4-yl]amino]ethyl]benzene-1,2-diol], with below 200 nM.
For `Cc1c(Cl)cccc1-c1cc(NCCc2cc(O)c(O)c(O)c2)nc(N)n1` [Example 728, 5-[2-[[2-amino-6-(3-chloro-2-methyl-phenyl)pyrimidin-4-yl]amino]ethyl]benzene-1,2,3-triol], the IC50 was below 200 nM.
As to `C=C(C)CNc1cc(-c2cccc(Cl)c2C)nc(N)n1` [Example 729, 6-(3-chloro-2-methyl-phenyl)-N4-(2-methylallyl)pyrimidine-2,4-diamine], the IC50 was below 200 nM.
On the same count and under the same terms, then `COC(=O)C1CCC(CNc2cc(-c3cccc(Cl)c3C)nc(N)n2)CC1` (centres unmarked) [Example 731, methyl 4-[[[2-amino-6-(3-chloro-2-methyl-phenyl)pyrimidin-4-yl]amino]methyl]cyclohexanecarboxylate], with below 200 nM; and `Cc1c(Cl)cccc1-c1cc(NCCc2cccnc2)nc(N)n1` [Example 733, 6-(3-chloro-2-methyl-phenyl)-N4-[2-(3-pyridyl)ethyl]pyrimidine-2,4-diamine], with below 200 nM.
`Cc1c(Cl)cccc1-c1cc(NCCc2cnccn2)nc(N)n1` [Example 735, 6-(3-chloro-2-methyl-phenyl)-N4-(2-pyrazin-2-ylethyl)pyrimidine-2,4-diamine]: the half-inhibitory concentration (IC50) is below 200 nM.
Same read-out and setting: next, `Cc1c(Cl)cccc1-c1cc(NCCc2ccc(Br)cc2)nc(N)n1` [Example 736, N4-[2-(4-bromophenyl)ethyl]-6-(3-chloro-2-methylphenyl)pyrimidine-2,4-diamine]: below 200 nM.
Take `Cc1c(Cl)cccc1-c1nc(N)nc2c1CCN2` [Example 742, 4-(3-chloro-2-methylphenyl)-5H,6H,7H-pyrrolo[2,3-d]pyrimidin-2-amine]: the IC50 was below 200 nM.
`Cc1c(Cl)cccc1-c1nc(N)nc2c1C[C@@H](C)N2` [Example 743, (6R)-4-(3-Chloro-2-methylphenyl)-6-methyl-5H,6H,7H-pyrrolo[2,3-d]pyrimidin-2-amine]: the IC50 was below 200 nM.
Turning to `Cc1c(Cl)cccc1-c1cc(NCCOc2ccc(Cl)cn2)nc(N)n1` [Example 746, 6-(3-chloro-2-methylphenyl)-N4-{2-[(5-chloropyridin-2-yl)oxy]ethyl}pyrimidine-2,4-diamine], the IC50 was below 200 nM.
On the same count and under the same terms, next, `Cc1c(Cl)cccc1-c1cc(NCCOc2ccc(C#N)cc2)nc(N)n1` [Example 747, 4-(2-{[2-amino-6-(3-chloro-2-methylphenyl)pyrimidin-4-yl]amino}ethoxy)benzonitrile]: below 200 nM.

The next assay relates to unactivated T-lymphocytes. The experiment in a line: Cellular assay, unactivated primary T-lymphocytes. Format: cell-based, human.
Conditions: not given
As for the experimental part:
(§1) Cellular Assay and IC50 Value Determination
The T-lymphocytes are treated with an MTH1 inhibitor, positive control or vehicle for 24-96 hrs. Cell viability can be measured by using standard assays, such as for instance a resazurin assay. In some experiments, the cells are stained with Cell Trace Violet at the start of the culture. The dye is diluted as the cells divide and gives a measurement of cell proliferation (see FIG. 1 for an example).
Take `Cc1c(Cl)cccc1-c1cc(NCCc2ccc(S(N)(=O)=O)cc2)nc(N)n1` [Example 297, 4-(2-{[2-amino-6-(3-chloro-2-methylphenyl)pyrimidin-4-yl]amino}ethyl)benzene-1-sulfonamide]: the “effect on unactivated T-lymphocytes (FIG. 1)” value is recorded as “unaffected”.

A further assay concerns activated T-lymphocytes. As to the kind of experiment: Cellular assay, primary T-lymphocytes activated with CD3/CD28 Dynabeads.
Conditions: not given
In kind it is cell-based, human. As for the experimental part: as §1
Primary T-lymphocytes are isolated from donated human blood and thereafter activated with CD3/CD28 Dynabeads. The T-lymphocytes are treated with an MTH1 inhibitor, positive control or vehicle for 24-96 hrs. Cell viability can be measured by using standard assays, such as for instance a resazurin assay. In some experiments, the cells are stained with Cell Trace Violet at the start of the culture. The dye is diluted as the cells divide and gives a measurement of cell proliferation (see FIG. 1 for an example).
`Cc1c(Cl)cccc1-c1cc(NCCc2ccc(S(N)(=O)=O)cc2)nc(N)n1` [Example 297, 4-(2-{[2-amino-6-(3-chloro-2-methylphenyl)pyrimidin-4-yl]amino}ethyl)benzene-1-sulfonamide]: the “effect on activated T-lymphocytes (FIG. 1)” value was “selectively kills”.

Usually IC50 stands for the point on the concentration scale where inhibition reaches its midpoint.
